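Dose response: 5 concentrations. Exposure: 48 h. Format: 96-well plates. Endpoint: linear interpolation; highest concentration if not reached. Definition used: TGI = concentration required for complete inhibition of growth.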 Where a SMILES comes first, the peptide text is derived from it. The star is where a group is joined. Boc = CC(C)(C)OC(=O)*; Bn = c1ccc(C*)cc1
Legend:
Assay in all cases: DTP human tumour cell line panel, 48 h
[1] = test system: 786-0 renal
[2] = test system: A549 NSCLC
[3] = test system: ACHN renal
[4] = test system: BT-549 breast
[5] = test system: CAKI-1 renal
[6] = test system: COLO 205 colon
[7] = test system: DU-145 prostate
[8] = test system: EKVX NSCLC
[9] = test system: HCT-116 colon
[10] = test system: HL-60(TB) leukemia
[11] = test system: HOP-62 NSCLC
[12] = test system: HOP-92 NSCLC
[13] = test system: HS 578T breast
[14] = test system: HT29 colon
[15] = test system: IGROV1 ovarian
[16] = test system: K-562 leukemia
[17] = test system: KM12 colon
[18] = test system: LOX IMVI melanoma
[19] = test system: M14 melanoma
[20] = test system: MALME-3M melanoma
[21] = test system: MCF7 breast
[22] = test system: MDA-MB-231 breast
[23] = test system: MDA-MB-435
[24] = test system: MDA-N
[25] = test system: MOLT-4 leukemia
[26] = test system: NCI-H226 lung
[27] = test system: NCI-H23 lung
[28] = test system: NCI-H460 lung
[29] = test system: NCI-H522 lung
[30] = test system: NCI/ADR-RES ovarian
[31] = test system: OVCAR-3 ovarian
[32] = test system: OVCAR-4 ovarian
[33] = test system: OVCAR-5 ovarian
[34] = test system: OVCAR-8 ovarian
[35] = test system: PC-3 prostate
[36] = test system: RPMI-8226 leukemia
[37] = test system: RXF 393 renal
[38] = test system: SF-268 CNS
[39] = test system: SF-295 CNS
[40] = test system: SF-539 CNS
[41] = test system: SK-MEL-28 melanoma
[42] = test system: SK-MEL-5 melanoma
[43] = test system: SK-OV-3 ovarian
[44] = test system: SN12C renal
[45] = test system: SNB-19 CNS
[46] = test system: SNB-75 CNS
[47] = test system: SR leukemia
[48] = test system: SW-620 colon
[49] = test system: T-47D breast
[50] = test system: TK-10 renal
[51] = test system: U251 CNS
[52] = test system: UACC-62 melanoma
[53] = test system: UO-31 renal
[54] = test system: HCC-2998 colon
[55] = test system: HCT-15 colon
[56] = test system: SK-MEL-2 melanoma
[57] = test system: UACC-257 melanoma

COC(=O)C(CC(C)C)NC(=O)CNC(=O)C(Cc1ccc(OCc2ccccc2)cc1)NC(=O)C(COCc1ccccc1)NC(=O)OC(C)(C)C (stereo not drawn) (Boc-S(Bn)Y(Bn)GL-OMe; configuration not given here)
TGI [1]: > 100 µM
TGI [2]: > 100 µM
TGI [3]: > 100 µM
TGI [4]: > 100 µM
TGI [5]: > 100 µM
TGI [6]: > 100 µM
TGI [7]: > 100 µM
TGI [8]: > 100 µM
TGI [9]: > 100 µM
TGI [10]: 39.7 µM
TGI [11]: > 100 µM
TGI [12]: > 100 µM
TGI [13]: > 100 µM
TGI [14]: > 100 µM
TGI [15]: > 100 µM
TGI [16]: > 100 µM
TGI [17]: > 100 µM
TGI [18]: > 100 µM
TGI [19]: > 100 µM
TGI [20]: > 100 µM
TGI [21]: > 100 µM
TGI [22]: > 100 µM
TGI [23]: > 100 µM
TGI [24]: > 100 µM
TGI [25]: > 100 µM
TGI [26]: > 100 µM
TGI [27]: > 100 µM
TGI [28]: > 100 µM
TGI [29]: > 100 µM
TGI [30]: > 100 µM
TGI [31]: > 100 µM
TGI [32]: > 100 µM
TGI [33]: > 100 µM
TGI [34]: > 100 µM
TGI [35]: > 100 µM
TGI [36]: > 100 µM
TGI [37]: > 100 µM
TGI [38]: > 100 µM
TGI [39]: > 100 µM
TGI [40]: > 100 µM
TGI [41]: > 100 µM
TGI [42]: > 100 µM
TGI [43]: > 100 µM
TGI [44]: > 100 µM
TGI [45]: > 100 µM
TGI [46]: > 100 µM
TGI [47]: > 100 µM
TGI [48]: > 100 µM
TGI [49]: > 100 µM
TGI [50]: > 100 µM
TGI [51]: > 100 µM
TGI [52]: > 100 µM
TGI [53]: > 100 µM

COc1ccc2cc(/C=N\NC(=O)Nc3ccc([N+](=O)[O-])cc3)ccc2c1
TGI [1]: 16.8 µM
TGI [2]: 18.5 µM
TGI [3]: 19.8 µM
TGI [4]: 18.6 µM
TGI [5]: 18.5 µM
TGI [6]: 17.9 µM
TGI [7]: 14 µM
TGI [8]: 25 µM
TGI [54]: 20.1 µM
TGI [9]: 16.3 µM
TGI [55]: 25 µM
TGI [10]: 30.7 µM
TGI [11]: 41.6 µM
TGI [12]: 32.4 µM
TGI [13]: > 31.6 µM
TGI [14]: 16.1 µM
TGI [15]: 23.2 µM
TGI [16]: > 31.6 µM
TGI [17]: 24.5 µM
TGI [18]: 17.6 µM
TGI [19]: > 71.4 µM
TGI [20]: 22.4 µM
TGI [21]: > 31.6 µM
TGI [22]: 19.1 µM
TGI [23]: 25.1 µM
TGI [24]: 18.5 µM
TGI [25]: 21.8 µM
TGI [27]: 16.6 µM
TGI [28]: 18.3 µM
TGI [29]: 26.4 µM
TGI [30]: 20.1 µM
TGI [31]: 44.1 µM
TGI [32]: 15.9 µM
TGI [33]: 48.6 µM
TGI [34]: 16.9 µM
TGI [35]: 18.8 µM
TGI [36]: 29.1 µM
TGI [37]: 16.6 µM
TGI [38]: > 31.6 µM
TGI [39]: 20.7 µM
TGI [40]: 18.3 µM
TGI [56]: 20.5 µM
TGI [41]: 23.1 µM
TGI [42]: 17.7 µM
TGI [43]: 18.5 µM
TGI [44]: 18 µM
TGI [45]: 20.1 µM
TGI [46]: 23.1 µM
TGI [48]: > 31.6 µM
TGI [49]: 19.5 µM
TGI [50]: 14.4 µM
TGI [51]: 26.6 µM
TGI [57]: 20.7 µM
TGI [52]: 19.2 µM
TGI [53]: 18.8 µM

From PubChem BioAssay (NCI)
